Results on 1 compound are retold here after BindingDB's records for doi:10.1021/jm00123a012 (Dainippon Pharmaceutical, 1989).

For this test, the target named is Polyunsaturated fatty acid 5-lipoxygenase (Cavia porcellus). As to the kind of experiment: Inhibitory activity against 5-lipoxygenase in guinea pig leukocyte.

`Cc1ccc(/C=C/C(=O)NCCCCN2CCN(C(c3ccccc3)c3ccccc3)CC2)cn1` [N-[4-(4-Benzhydryl-piperazin-1-yl)-butyl]-3-(6-methyl-pyridin-3-yl)-acrylamide]: half-maximal inhibition (IC50) required 4.86 µM.
